ChEMBL document CHEMBL1122929, “6,7-Dihydro-5-[[(cis-2-hydroxy-trans-3-phenoxycyclopentyl)amino] methyl]-2-methylbenzo[b]thiophen-4(5H)-one: a novel alpha 1-adrenergic receptor antagonist and renal vasodilator” (J Med Chem, 1985)
Activity calls are given as the source filed them. The calls are words filed in the database; no cut-off is given here.

How the values were obtained:
[1] = tested on: Canis familiaris; assay: Mean arterial blood pressure (MABP) was evaluated in anesthetized dog by intravenous administration of compound at 1 mg/kg; format: functional, Canis lupus familiaris
[2] = tested on: Rattus norvegicus; assay: Mean arterial blood pressure (MABP) was evaluated in conscious hypertensive rats by peroral administration of compound at 30 mg/kg; format: functional; conditions: route oral
[3] = species: Canis familiaris; assay: Dose required to reduce blood pressure by 15% (ED15) was calculated.; format: functional; conditions: Canis lupus familiaris
[4] = tested on: Rattus norvegicus; assay: Mean arterial blood pressure (MABP) was evaluated in chronically cannulated spontaneously hypertensive rats (SHR) after peroral administration 30 mg/kg of compound; […]; format: functional
[5] = tested on: Canis familiaris; assay: Mean arterial blood pressure (MABP) was evaluated in anesthetized dog after intravenous administration of 1 mg/kg of compound; format: functional, Canis lupus familiaris
[6] = biological target: T1, Adrenergic receptor alpha-1 (Rattus norvegicus, UniProt P15823+P23944+P43140); assay: Ability to inhibit 50% specific binding of [3H]prazosin radioligand to alpha-1 adrenergic receptor in rat cerebrocortex; format: tissue-based, Cortex
T1 sequence (P15823 whole entry): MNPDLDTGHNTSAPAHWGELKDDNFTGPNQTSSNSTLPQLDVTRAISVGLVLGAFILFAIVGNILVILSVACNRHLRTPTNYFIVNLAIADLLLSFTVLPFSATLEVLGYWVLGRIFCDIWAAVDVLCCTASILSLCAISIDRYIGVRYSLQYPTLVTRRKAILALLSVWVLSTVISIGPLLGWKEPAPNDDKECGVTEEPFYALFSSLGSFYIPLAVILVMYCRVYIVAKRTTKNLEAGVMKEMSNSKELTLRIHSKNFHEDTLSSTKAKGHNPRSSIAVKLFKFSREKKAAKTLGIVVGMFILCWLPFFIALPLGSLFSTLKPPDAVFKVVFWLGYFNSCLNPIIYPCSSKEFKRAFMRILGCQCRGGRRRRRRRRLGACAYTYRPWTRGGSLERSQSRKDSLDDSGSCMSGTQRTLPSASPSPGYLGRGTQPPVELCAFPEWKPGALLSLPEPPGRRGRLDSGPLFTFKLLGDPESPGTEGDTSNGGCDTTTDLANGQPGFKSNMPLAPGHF
T1 sequence (P23944 whole entry): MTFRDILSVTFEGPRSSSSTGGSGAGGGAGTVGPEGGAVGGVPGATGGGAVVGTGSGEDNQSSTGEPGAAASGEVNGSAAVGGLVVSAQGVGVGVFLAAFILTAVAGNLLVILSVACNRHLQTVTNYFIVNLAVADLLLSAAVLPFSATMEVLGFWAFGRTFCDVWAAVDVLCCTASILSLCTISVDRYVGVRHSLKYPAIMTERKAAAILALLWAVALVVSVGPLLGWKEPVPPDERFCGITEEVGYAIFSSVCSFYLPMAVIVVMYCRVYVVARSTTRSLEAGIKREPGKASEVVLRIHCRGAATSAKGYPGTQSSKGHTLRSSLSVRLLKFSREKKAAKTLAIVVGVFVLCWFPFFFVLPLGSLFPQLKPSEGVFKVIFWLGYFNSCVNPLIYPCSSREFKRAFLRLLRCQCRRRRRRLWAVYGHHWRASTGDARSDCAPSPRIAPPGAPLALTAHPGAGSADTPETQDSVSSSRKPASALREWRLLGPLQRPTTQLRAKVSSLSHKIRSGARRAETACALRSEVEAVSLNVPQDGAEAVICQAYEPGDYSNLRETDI
T1 sequence (P43140 whole entry): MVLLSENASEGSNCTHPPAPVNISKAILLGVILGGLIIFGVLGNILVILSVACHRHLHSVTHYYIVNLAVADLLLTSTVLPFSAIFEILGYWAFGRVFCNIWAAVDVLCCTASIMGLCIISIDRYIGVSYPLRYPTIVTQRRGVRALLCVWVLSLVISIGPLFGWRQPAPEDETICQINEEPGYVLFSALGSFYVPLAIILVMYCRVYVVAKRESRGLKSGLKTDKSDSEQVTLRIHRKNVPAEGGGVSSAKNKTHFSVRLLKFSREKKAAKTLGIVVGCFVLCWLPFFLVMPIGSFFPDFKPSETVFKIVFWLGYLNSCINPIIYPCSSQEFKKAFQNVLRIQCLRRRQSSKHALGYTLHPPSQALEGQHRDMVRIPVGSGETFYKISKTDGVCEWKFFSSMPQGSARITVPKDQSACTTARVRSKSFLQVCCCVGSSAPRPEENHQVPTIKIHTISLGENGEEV

[7] = biological target: T2, Adrenergic receptor alpha-2 (Rattus norvegicus, UniProt P22086+P19328+P22909); assay: Ability to inhibit 50% specific binding of [3H]-p-amino clonidine radioligand to alpha-2 adrenergic receptor in rat cerebrocortex; format: tissue-based, Cortex
T2 sequence (P22086 whole entry): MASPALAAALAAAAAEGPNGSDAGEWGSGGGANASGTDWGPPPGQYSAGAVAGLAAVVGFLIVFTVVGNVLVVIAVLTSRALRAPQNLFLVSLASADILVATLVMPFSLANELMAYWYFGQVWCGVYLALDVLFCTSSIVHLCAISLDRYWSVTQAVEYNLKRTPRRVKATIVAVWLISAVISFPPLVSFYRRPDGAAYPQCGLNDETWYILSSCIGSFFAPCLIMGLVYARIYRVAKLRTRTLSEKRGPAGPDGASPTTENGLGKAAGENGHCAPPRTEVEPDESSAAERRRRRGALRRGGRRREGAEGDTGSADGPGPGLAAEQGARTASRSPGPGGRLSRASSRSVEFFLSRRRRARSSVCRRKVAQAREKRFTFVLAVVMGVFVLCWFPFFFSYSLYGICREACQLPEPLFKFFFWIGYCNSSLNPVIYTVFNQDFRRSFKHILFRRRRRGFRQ
T2 sequence (P19328 whole entry): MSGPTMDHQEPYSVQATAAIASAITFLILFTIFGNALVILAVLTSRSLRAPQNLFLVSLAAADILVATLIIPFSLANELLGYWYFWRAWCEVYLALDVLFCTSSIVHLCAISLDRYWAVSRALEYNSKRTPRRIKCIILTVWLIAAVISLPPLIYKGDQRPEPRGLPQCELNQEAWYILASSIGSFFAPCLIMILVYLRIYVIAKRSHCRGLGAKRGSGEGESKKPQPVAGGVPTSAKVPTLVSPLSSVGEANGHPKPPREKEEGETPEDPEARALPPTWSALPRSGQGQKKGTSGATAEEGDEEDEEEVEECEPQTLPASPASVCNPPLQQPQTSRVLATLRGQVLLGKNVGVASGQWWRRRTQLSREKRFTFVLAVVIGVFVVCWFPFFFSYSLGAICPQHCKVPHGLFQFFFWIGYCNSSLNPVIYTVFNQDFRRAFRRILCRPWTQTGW
T2 sequence (P22909 whole entry): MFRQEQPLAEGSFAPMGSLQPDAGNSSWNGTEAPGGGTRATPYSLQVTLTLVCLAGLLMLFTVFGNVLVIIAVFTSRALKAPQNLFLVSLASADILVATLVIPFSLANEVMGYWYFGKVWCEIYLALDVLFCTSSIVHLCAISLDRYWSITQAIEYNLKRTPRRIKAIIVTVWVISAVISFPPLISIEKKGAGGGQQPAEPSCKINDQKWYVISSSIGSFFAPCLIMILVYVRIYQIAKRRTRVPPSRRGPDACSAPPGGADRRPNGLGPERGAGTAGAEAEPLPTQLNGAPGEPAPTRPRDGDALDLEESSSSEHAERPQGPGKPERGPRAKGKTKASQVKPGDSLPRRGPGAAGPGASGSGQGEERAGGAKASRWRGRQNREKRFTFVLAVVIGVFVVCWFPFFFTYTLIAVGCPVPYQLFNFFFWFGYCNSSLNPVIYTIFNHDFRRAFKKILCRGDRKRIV

[8] = biological target: Adrenergic receptor alpha-1 (Oryctolagus cuniculus); assay: pA2 value for phenylephrine antagonist towards at alpha-1 adrenergic receptor was determined in rabbit aorta
[9] = species: Canis familiaris; assay: Dose required to reduce blood pressure by 15% (ED15) was calculated; format: functional; conditions: Canis lupus familiaris
[10] = tested on: Canis familiaris; assay: Renal blood flow was determined at cumulative dose of 1 mg/kg in anesthetized dogs by intravenous administration after sulpiride pretreatment; format: functional, Canis lupus familiaris, Kidney
[11] = tested on: Canis familiaris; assay: Renal blood flow was determined at cumulative dose of 0.3 mg/kg in anesthetized dogs by intravenous administration after SCH 23390 pretreatment; format: functional, Canis lupus familiaris, Kidney
[12] = tested on: Canis familiaris; assay: Renal blood flow was determined at cumulative dose of 0.01 mg/kg in anesthetized dogs by intravenous administration after SCH 23390 pretreatment; format: functional, Canis lupus familiaris, Kidney
[13] = tested on: Canis familiaris; assay: Mean arterial blood pressure was determined at cumulative dose of 0.3 mg/kg in anesthetized dogs by intravenous administration after sulpiride pretreatment; format: functional, Canis lupus familiaris
[14] = tested on: Canis familiaris; assay: Mean arterial blood pressure was determined at cumulative dose of 0.1 mg/kg in anesthetized dogs by intravenous administration after sulpiride pretreatment; format: functional, Canis lupus familiaris
[15] = tested on: Canis familiaris; assay: Mean arterial blood pressure was determined at cumulative dose of 0.3 mg/kg in anesthetized dogs by intravenous administration after SCH 23390 pretreatment; format: functional, Canis lupus familiaris
[16] = tested on: Canis familiaris; assay: Renal blood flow was determined at cumulative dose of 0.1 mg/kg in anesthetized dogs by intravenous administration after sulpiride pretreatment; format: functional, Canis lupus familiaris, Kidney
[17] = tested on: Canis familiaris; assay: Mean arterial blood pressure was determined at cumulative dose of 1 mg/kg in anesthetized dogs by intravenous administration after sulpiride pretreatment; format: functional, Canis lupus familiaris
[18] = tested on: Canis familiaris; assay: Renal blood flow was determined at cumulative dose of 0.03 mg/kg in anesthetized dogs by intravenous administration after sulpiride pretreatment; format: functional, Canis lupus familiaris, Kidney
[19] = tested on: Canis familiaris; assay: Mean arterial blood pressure was determined at cumulative dose of 0.01 mg/kg in anesthetized dogs by intravenous administration after SCH 23390 pretreatment; format: functional, Canis lupus familiaris
[20] = tested on: Canis familiaris; assay: Renal blood flow was determined at cumulative dose of 0.03 mg/kg in anesthetized dogs by intravenous administration after SCH 23390 pretreatment; format: functional, Canis lupus familiaris, Kidney
[21] = tested on: Canis familiaris; assay: Renal blood flow was determined at cumulative dose of 0.3 mg/kg in anesthetized dogs by intravenous administration after sulpiride pretreatment; format: functional, Canis lupus familiaris, Kidney
[22] = tested on: Canis familiaris; assay: Mean arterial blood pressure was determined at cumulative dose of 1 mg/kg in anesthetized dogs by intravenous administration after SCH 23390 pretreatment; format: functional, Canis lupus familiaris
[23] = tested on: Canis familiaris; assay: Mean arterial blood pressure was determined at cumulative dose of 0.1 mg/kg in anesthetized dogs by intravenous administration after SCH 23390 pretreatment; format: functional, Canis lupus familiaris
[24] = tested on: Canis familiaris; assay: Renal blood flow was determined at cumulative dose of 0.01 mg/kg in anesthetized dogs by intravenous administration after sulpiride pretreatment; format: functional, Canis lupus familiaris, Kidney
[25] = tested on: Canis familiaris; assay: Renal blood flow was determined at cumulative dose of 0.1 mg/kg in anesthetized dogs by intravenous administration after SCH 23390 pretreatment; format: functional, Canis lupus familiaris, Kidney
[26] = tested on: Canis familiaris; assay: Mean arterial blood pressure was determined at cumulative dose of 0.01 mg/kg in anesthetized dogs by intravenous administration after sulpiride pretreatment; format: functional, Canis lupus familiaris
[27] = tested on: Canis familiaris; assay: Mean arterial blood pressure was determined at cumulative dose of 0.03 mg/kg in anesthetized dogs by intravenous administration after sulpiride pretreatment; format: functional, Canis lupus familiaris
[28] = tested on: Canis familiaris; assay: Renal blood flow was determined at cumulative dose of 1 mg/kg in anesthetized dogs by intravenous administration after SCH 23390 pretreatment; format: functional, Canis lupus familiaris, Kidney
[29] = tested on: Canis familiaris; assay: Mean arterial blood pressure was determined at cumulative dose of 0.03 mg/kg in anesthetized dogs by intravenous administration after SCH 23390 pretreatment; format: functional, Canis lupus familiaris

Row | SMILES | ED15 [3] | Max delta MABP [4] | Max delta MABP [5] | IC50 [6] | IC50 [7] | pA2 [8] | Max delta MABP ([4]; route oral) | other results
1 | COc1cc2nc(N3CCN(C(=O)c4ccco4)CC3)nc(N)c2cc1OC [PRAZOSIN] | 0.1 mg/kg |  |  |  |  |  |  | Max delta MABP [1]: -30 mmHg; Max delta MABP [2]: -45 mmHg
2 | Cc1cc2c(s1)CCC(CN[C@H]1CC[C@@H](Oc3ccccc3)[C@H]1O)C2=O (some centres not stated) | 3.3 mg/kg | inactive | -16 mmHg | 55 nM | 600 nM | 7.28 |  | 
3 | Cc1cc2c(s1)CCC(CN[C@H]1CC[C@@H](Oc3ccccc3)[C@@H]1O)C2=O (some centres not stated) |  | inactive | -8 mmHg | 90 nM | > 1000 nM | 7.04 |  | ED15 [9]: > 10 mg/kg
4 | Cc1cc2c(s1)CCC(CN[C@@H]1CC[C@@H](Oc3ccccc3)[C@H]1O)C2=O (some centres not stated) | 0.61 mg/kg |  | -31 mmHg | 45 nM | 100 nM | 7.4 | -34 mmHg | 
5 | Cc1cc2c(s1)CCC(CN[C@@H]1CC[C@@H](Oc3ccccc3)[C@@H]1O)C2=O.Cl (some centres not stated) | 0.08 mg/kg |  | -47 mmHg | 8 nM | 800 nM | 8.13 | -70 mmHg | Delta RBF [10]: -1%; Delta RBF [11]: -1%; Delta RBF [12]: -2%; Delta MABP [13]: -21%; Delta MABP [14]: -14%; Delta MABP [15]: -15%; Delta RBF [16]: 9%; Delta MABP [17]: -29%; Delta RBF [18]: 10%; Delta MABP [19]: -3%; Delta RBF [20]: -1%; Delta RBF [21]: 9%; Delta MABP [22]: -22%; Delta MABP [23]: -10%; Delta RBF [24]: 6%; Delta RBF [25]: -1%; Delta MABP [26]: -3%; Delta MABP [27]: -10%; Delta RBF [28]: -6%; Delta MABP [29]: -6%
